Results on one compound are retold here after paper PMC6261997, “Synergistic enzymatic and bioorthogonal reactions for selective prodrug activation in living systems” (Nature Communications, 2018).

The test system of one assay is CCC-HEH-2 cells. Description: Clonogenic assay, CCC-HEH-2 cells. In kind it is cell-based, human. Conditions: pre-treated with 500 μM 2 for 6 h. How it is done: Supplementary Figure 17. Clonogenic assay of different cell lines before and after treatment with 2. HeLa cells, HUVECs and Saos-2 cells were seeded at density of 400 cells per well, CCC-HEH-2 cells were seeded at density of 200 cells per well. Cells were incubated with 500 µM 2 for 6 h in the treatment groups. Cells were not treated with compound 2 in the control groups. Colonies were harvest approximately 10 days after seeding. Scale bar, 10 mm.
Supplementary Figure 18. Cytotoxicity of activated Dox against HeLa cells and HUVECs. HeLa cells or HUVECs at the density of 3x10^3 cells per well were incubated with 100 µL of pre-warmed medium containing compound 2 at 300 or 500 µM for 6 h. After washing with PBS, 100 µL of 0.0001-10 µM TCO-Dox was added. After 72 h, cell proliferation was assessed by the MTT assay (n= 6). Error bars indicate standard […]
Supplementary Figure 19. […] At each time point, the remaining 2, corresponding generated 3 and remaining TCO-Dox were determined by UPLC-MS/MS. […]
Clonogenic assay of cells in vitro: Clonogenic assay was performed according to the standard protocol.6 2×10^5 attached cells were treated with 500 µM of 2 for 6 h in culture dishes. Cells were then detached, re-suspended in cultural medium and counted accurately. […]
The glutaraldehyde crystal violet mixture was removed carefully. […] The number of the colonies was counted using a stereomicroscope. […]

Another assay has as its system HUVECs. Description: Intracellular Tz accumulation by fluorescence liberation from TCO-CMR, HUVECs. In kind it is cell-based. As to conditions: even in the presence of 500 μM 2. As to the method: Next, we tested the intracellular accumulation of Tz via EISA in an attempt to differentiate cancer cells from normal cells. First, we investigated the accumulation of Tz in HeLa cells and HUVECs over time via fluorescence liberation from TCO-CMR (Fig. 3a). Each group of cells was pre-incubated with different concentrations of 2 ranging from 100 to 500 μM for 1, 2, 4, 6, 15 or 24 h. The cells were then washed with PBS thoroughly before the addition of an excessive amount of TCO-CMR (100 μL, 50 μM), and the reaction of TCO-CMR with the intracellular accumulated Tz was allowed to proceed for up to 24 h (Supplementary Fig. 8). In this experimental setting, the total liberated fluorescence was proportional to the amount of 3 accumulated inside the cells. […] Therefore, the optimized concentration of 2 (e.g. 500 μM) and incubation time (e.g. 6 h) were selected to differentiate between cancer and normal cells according to liberated fluorescence intensity (Fig. 3c). […]
All cells were purchased from the National Infrastructure of Cell Line Resource (Beijing, China). […] After incubation for different durations (1–24 h), the cells were rinsed with PBS, and then 100 μL of 50 μM TCO-CMR (dissolved in PBS) was added for real-time detection of the fluorescence intensity of coumarin in a plate reader (Perkin Elmer).

Take `Cc1nnc(-c2ccc(CC(=O)NCCCCC(NC(=O)Cc3ccc4ccccc4c3)C(=O)NC(Cc3ccc(OP(=O)(O)O)cc3)C(=O)NC(Cc3ccccc3)C(=O)O)cc2)nn1` (centres unmarked) [compound 2, NapK(Tz)YpF]: in the assay on CCC-HEH-2 cells, the “Surviving Fraction, CCC-HEH-2” value was determined as 92.2 ±8.3%. The “liberated fluorescence in HUVECs” value with HUVECs is listed as “only a negligible amount of fluorescence”.
